Results taken from US20090137546A1, “Anti-Hypercholesterolemic Compounds” (priority 2005, published 2009).

System: cholesterol absorption
Experiment: Cholesterol Absorption Assay in Mice
Assay type: in vivo, C57BL/6 male mice
Conditions: highest dose tested (oral, 0.12-10 mg/kg range); [3H]-cholesterol counts in liver and plasma, 5 h after cholesterol dose
Method: Compounds of this invention were determined to inhibit cholesterol absorption employing the Cholesterol Absorption Assay in Mice, below. This assay involves comparing a test compound to ezetimibe with respect to their ability to inhibit cholesterol absorption in mice.
Cholesterol Absorption Assay in Mice: C57BL/6 male mice (n=6/group), aged 10-14 weeks, were dosed orally with 0.2 ml 0.25% methyl cellulose solution with or without test compound or ezetimibe (0.12-10 mg/kg). Thirty minutes later all of the mice were dosed orally with 0.2 ml […]™ containing 2 μCi [^3H]-cholesterol per mouse. Five hours later, the animals were euthanized, and liver and blood were collected. Cholesterol counts in liver and plasma were determined, and percent inhibition of cholesterol absorption was calculated.

With `O=C1[C@H](CC[C@H](O)c2ccc(F)cc2)[C@@H](c2ccc(O)cc2)N1c1ccc(F)cc1` [ezetimibe] the “inhibition of cholesterol absorption” value was over 90%.
